What was measured:
[1] = target: T1, Epidermal growth factor receptor (Homo sapiens, UniProt P00533); assay: Evaluation of inhibitory activity against phospholipase C-gamma1 phosphorylation by Epidermal growth factor receptor enzyme isolated from A431 cells.
[2] = target: T1, Epidermal growth factor receptor; assay: Inhibition of Epidermal growth factor receptor from A431 cells

T1 sequence (P00533 whole entry): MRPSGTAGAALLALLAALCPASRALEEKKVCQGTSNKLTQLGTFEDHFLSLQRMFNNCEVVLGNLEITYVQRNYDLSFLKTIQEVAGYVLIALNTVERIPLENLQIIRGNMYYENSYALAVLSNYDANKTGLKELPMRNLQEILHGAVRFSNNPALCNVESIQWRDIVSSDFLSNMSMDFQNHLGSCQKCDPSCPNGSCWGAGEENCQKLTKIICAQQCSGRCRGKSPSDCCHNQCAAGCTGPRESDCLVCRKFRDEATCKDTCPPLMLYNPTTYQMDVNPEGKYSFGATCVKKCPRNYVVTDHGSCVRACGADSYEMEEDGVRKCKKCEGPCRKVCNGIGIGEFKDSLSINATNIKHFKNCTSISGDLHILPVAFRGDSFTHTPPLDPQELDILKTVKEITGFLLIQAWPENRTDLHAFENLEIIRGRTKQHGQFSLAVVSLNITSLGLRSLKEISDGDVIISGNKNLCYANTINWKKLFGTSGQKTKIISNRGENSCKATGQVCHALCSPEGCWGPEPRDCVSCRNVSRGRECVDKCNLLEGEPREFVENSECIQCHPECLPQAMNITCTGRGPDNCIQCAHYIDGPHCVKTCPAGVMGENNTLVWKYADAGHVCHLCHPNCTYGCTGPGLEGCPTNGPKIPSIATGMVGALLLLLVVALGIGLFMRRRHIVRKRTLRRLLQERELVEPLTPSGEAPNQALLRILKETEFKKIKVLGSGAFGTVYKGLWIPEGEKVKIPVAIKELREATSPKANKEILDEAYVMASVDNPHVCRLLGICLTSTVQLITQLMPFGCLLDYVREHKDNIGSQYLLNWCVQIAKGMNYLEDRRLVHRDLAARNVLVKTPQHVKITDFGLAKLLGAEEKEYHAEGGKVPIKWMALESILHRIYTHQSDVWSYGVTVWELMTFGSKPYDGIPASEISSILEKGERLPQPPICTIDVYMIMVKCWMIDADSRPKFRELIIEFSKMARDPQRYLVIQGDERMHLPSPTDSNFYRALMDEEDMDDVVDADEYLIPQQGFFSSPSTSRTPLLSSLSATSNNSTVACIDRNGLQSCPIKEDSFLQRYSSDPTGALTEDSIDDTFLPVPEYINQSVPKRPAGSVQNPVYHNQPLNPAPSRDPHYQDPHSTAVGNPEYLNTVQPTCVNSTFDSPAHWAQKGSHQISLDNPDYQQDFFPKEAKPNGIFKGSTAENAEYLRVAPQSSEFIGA

| IC50 [1] [nM] | IC50 [2] [nM] | Structure (SMILES) |
| --- | --- | --- |
| 10 | – | COc1ccc2c(Nc3cccc(Br)c3)ncnc2c1 |
| 1000 | – | O=[N+]([O-])c1ccc2c(Nc3cccc(Br)c3)ncnc2c1 |
| 588 | – | COc1cc2c(NCc3ccccc3)ncnc2cc1O |
| 56 | – | COc1cc2ncnc(NCc3ccccc3)c2cc1O |
| 439 | – | Nc1cccc2ncnc(Nc3cccc(Br)c3)c12 |
| 577 | – | FC(F)(F)c1cccc(Nc2ncnc3ccccc23)c1 |
| 7000 | – | Clc1ccc(CNc2ncnc3ccccc23)cc1 |
| > 1000 | – | Brc1cccc(Nc2nnnc3ccccc23)c1 |
| 0.12 | – | Nc1cc2ncnc(Nc3cccc(Br)c3)c2cc1N |
| 10000 | – | COc1ccc(CNc2ncnc3ccccc23)cc1 |
| > 10000 | – | O=[N+]([O-])c1ccc2ncnc(NCc3ccccc3)c2c1 |
| 23 | – | Clc1cccc(Nc2ncnc3ccccc23)c1 |
| – | > 10000 | O=[N+]([O-])c1cccc2c(NCc3ccccc3)ncnc12 |
| 756 | – | Brc1cccc(Oc2ncnc3ccccc23)c1 |
| > 10000 | – | COc1cccc2c(NCc3ccccc3)ncnc12 |
| 100000 | – | CN(c1ccccc1)c1ncnc2ccccc12 |
| – | > 10000 | Nc1cccc2c(NCc3ccccc3)ncnc12 |
| – | 974 | COc1cccc2c(Nc3cccc(Br)c3)ncnc12 |
| – | 355 | O=[N+]([O-])c1cccc2ncnc(Nc3cccc(Br)c3)c12 |
| > 10000 | – | O=[N+]([O-])c1cccc2c(Nc3cccc(Br)c3)ncnc12 |
| 58 | – | COc1ccc2c(NCc3ccccc3)ncnc2c1 |

| IC50 [1] [nM] | IC50 [2] [nM] | Structure (SMILES) |
| --- | --- | --- |
| 4900 | – | COc1cccc2ncnc(NCc3ccccc3)c12 |
| 5500 | – | Brc1cccc(Nc2ccnc3ccccc23)c1 |
| > 10000 | – | Brc1cccc(Nc2cnnc3ccccc23)c1 |
| 8000 | – | O=[N+]([O-])c1cccc2ncnc(NCc3ccccc3)c12 |
| 200 | – | COc1ccc2ncnc(NCc3ccccc3)c2c1 |
| 139 | – | COc1cccc2ncnc(Nc3cccc(Br)c3)c12 |
| – | 320 | c1ccc(CNc2ncnc3ccccc23)cc1 |
| > 100000 | – | Brc1cccc(Nc2nccc3ccccc23)c1 |
| > 100000 | – | Brc1cccc(Nc2cnc3ccccc3n2)c1 |
| 348 | – | COc1ccc2ncnc(Nc3cccc(Br)c3)c2c1 |
| 10 | – | COc1cc2ncnc(NCc3ccccc3)c2cc1OC |
| 910 | – | Cc1cccc(Nc2ncnc3ccccc23)c1 |
| – | 0.17 | Oc1cc2ncnc(Nc3cccc(Br)c3)c2cc1O |
| 105 | – | Nc1cccc2c(Nc3cccc(Br)c3)ncnc12 |
| > 10000 | – | Nc1cccc2ncnc(NCc3ccccc3)c12 |
| 1400 | – | Nc1ccc2ncnc(NCc3ccccc3)c2c1 |
| > 100000 | – | Brc1cccc(Nc2nncc3ccccc23)c1 |
| 80 | – | Ic1cccc(Nc2ncnc3ccccc23)c1 |
| 5900 | – | O=[N+]([O-])c1ccc2c(NCc3ccccc3)ncnc2c1 |
| > 1000 | – | Nc1ccc2c(NCc3ccccc3)ncnc2c1 |
| 897 | – | O=[N+]([O-])c1ccc2ncnc(Nc3cccc(Br)c3)c2c1 |

| Structure (SMILES) | IC50 [1] [nM] | IC50 [2] [nM] |
| --- | --- | --- |
| c1ccc(CCNc2ncnc3ccccc23)cc1 | 4100 | – |
